Results: the supplement of paper PMC10307832

Key:
Experiment in all cases: relative viability (nuclei count vs DMSO), 5 days (fraction); higher = more cells survive
ABC-1 = tested on: ABC-1
How it was run: (§1)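 Relative viability divides the nuclei count in treated wells by that in vehicle wells. Lung cancer cell lines were seeded in 1536-well plates, dosed by pin tool the next day, and fixed and stained after 5 days in one step with final 0.05% Triton X-100, 1% formaldehyde and 1 ug/ml Hoechst. Dosing was a single drug or a fixed anchor-drug dose plus five library-drug doses (not always all listed) in √10 steps, and values are medians of duplicate plates imaged at 4×.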

CAL-12T = tested on: CAL-12T
How it was run: as §1

COR-L23 = tested on: COR-L23
How it was run: as §1

EMC-BAC-2 = tested on: EMC-BAC-2
How it was run: as §1

HARA = tested on: HARA
How it was run: as §1

HCC-366 = tested on: HCC-366
How it was run: as §1

HOP-62 = tested on: HOP-62
How it was run: as §1

LK-2 = tested on: LK-2
How it was run: as §1

NCI-H1437 = tested on: NCI-H1437
How it was run: as §1

NCI-H1563 = tested on: NCI-H1563
How it was run: as §1

NCI-H1650 = tested on: NCI-H1650
How it was run: as §1

NCI-H1651 = tested on: NCI-H1651
How it was run: as §1

## Cc1csc(=NC2CCCCC2)n1/N=C/c1ccc(O)c(O)c1O [MIM1] + N=C(N)NC(=N)NCCc1ccccc1 [Phenformin] (partner 250 µM)
ABC-1; first compound 0.2 µM
  relative viability: 0.228
ABC-1; first compound 0.6325 µM
  relative viability: 0.261
ABC-1; first compound 2 µM
  relative viability: 0.231
ABC-1; first compound 6.325 µM
  relative viability: 0.201
ABC-1; first compound 20 µM
  relative viability: 0.189
CAL-12T; first compound 0.2 µM
  relative viability: 0.614
CAL-12T; first compound 0.6325 µM
  relative viability: 0.467
CAL-12T; first compound 2 µM
  relative viability: 0.586
CAL-12T; first compound 6.325 µM
  relative viability: 0.372
CAL-12T; first compound 20 µM
  relative viability: 0.119
COR-L23; first compound 0.2 µM
  relative viability: 0.434
COR-L23; first compound 0.6325 µM
  relative viability: 0.437
COR-L23; first compound 2 µM
  relative viability: 0.37
COR-L23; first compound 6.325 µM
  relative viability: 0.373
COR-L23; first compound 20 µM
  relative viability: 0.187
EMC-BAC-2; first compound 0.2 µM
  relative viability: 0.547
EMC-BAC-2; first compound 0.6325 µM
  relative viability: 0.455
EMC-BAC-2; first compound 2 µM
  relative viability: 0.515
EMC-BAC-2; first compound 6.325 µM
  relative viability: 0.48
EMC-BAC-2; first compound 20 µM
  relative viability: 0.208
HARA; first compound 0.2 µM
  relative viability: 0.455
HARA; first compound 2 µM
  relative viability: 0.49
HARA; first compound 6.325 µM
  relative viability: 0.16
HARA; first compound 20 µM
  relative viability: 0.0907
HCC-366; first compound 0.2 µM
  relative viability: 0.598
HCC-366; first compound 2 µM
  relative viability: 0.574
HCC-366; first compound 6.325 µM
  relative viability: 0.357
HCC-366; first compound 20 µM
  relative viability: 0.0831
HOP-62; first compound 0.2 µM
  relative viability: 0.641
HOP-62; first compound 0.6325 µM
  relative viability: 0.603
HOP-62; first compound 2 µM
  relative viability: 0.624
HOP-62; first compound 6.325 µM
  relative viability: 0.608
HOP-62; first compound 20 µM
  relative viability: 0.157
LK-2; first compound 0.2 µM
  relative viability: 0.602
LK-2; first compound 2 µM
  relative viability: 0.49
LK-2; first compound 6.325 µM
  relative viability: 0.147
LK-2; first compound 20 µM
  relative viability: 0.148
NCI-H1437; first compound 0.2 µM
  relative viability: 0.256
NCI-H1437; first compound 0.6325 µM
  relative viability: 0.246
NCI-H1437; first compound 2 µM
  relative viability: 0.244
NCI-H1437; first compound 6.325 µM
  relative viability: 0.205
NCI-H1437; first compound 20 µM
  relative viability: 0.217
NCI-H1563; first compound 0.2 µM
  relative viability: 0.672
NCI-H1563; first compound 0.6325 µM
  relative viability: 0.734
NCI-H1563; first compound 2 µM
  relative viability: 0.706
NCI-H1563; first compound 6.325 µM
  relative viability: 0.631
NCI-H1563; first compound 20 µM
  relative viability: 0.478
NCI-H1650; first compound 0.2 µM
  relative viability: 0.461
NCI-H1650; first compound 0.6325 µM
  relative viability: 0.406
NCI-H1650; first compound 2 µM
  relative viability: 0.412
NCI-H1650; first compound 6.325 µM
  relative viability: 0.155
NCI-H1650; first compound 20 µM
  relative viability: 0.164
NCI-H1651; first compound 0.2 µM
  relative viability: 0.351
NCI-H1651; first compound 0.6325 µM
  relative viability: 0.275
NCI-H1651; first compound 2 µM
  relative viability: 0.39
